Series [1] has as its target T1, integrin β3 cytoplasmic domain : tandem SH2 domains of Syk (GST-Syk(6-370)) (Homo sapiens, UniProt P43405).
T1 construct: the tandem SH2 domains of Syk (residues 6-370); made in house; host or cells: E. coli BL21(DE3)
The series is described as follows: AlphaScreen of integrin β3 cytoplasmic domain peptide binding to GST-Syk(6-370). The settings on record: for fold difference in inhibition, primary screen over false-positive counter screen (hit criterion): re-sourced compounds, counter screen with biotinylated GST; for inhibition of fluorescent signal in the primary screen, re-sourced compounds (hit criterion): re-sourced from a separate commercial source, 25 uM in text, 30 uM in legend of Figure 2C. Here is the method: The following HTS assay was developed to identify antagonists of the interaction between the integrin β3 cytoplasmic domain and the non-receptor tyrosine kinase Syk. […] ( Figure 1E ). Background signals in this assay were determined by omitting the integrin β3 peptide. Specific assay conditions are described in Table 1 . […] Then, either dimethyl sulfoxide control or compound was added, followed by biotinylated β3 peptide, and avidin-coated AlphaScreen donor beads. After a 4-h incubation period at room temperature (while protected from light), assays plates were read on an Infinite M1000 (Tecan) multiplate reader (Ex. 680/30; Em. 570/100).
Figure 3 Dose-response curves in primary and orthogonal screens. (A) AlphaScreen dose-response curves. […] Data are expressed as mean fluorescence (Fl520) ± range from duplicates, and one representative experiment of “n” performed is shown. (B) Orthogonal ELISA-based dose-response assays. […] Data are expressed as mean abs450 ± SEM from triplicate determinations, and one of three representative experiments is shown. (C) Ceftazidime inhibition of β3 peptide binding to Syk from THP-1 whole cell lysate. THP-1 cell lysate (100 ug) was treated with or without ceftazidime (Ctaz) before incubation with β3-coated avidin-agarose beads, and bound Syk was measured by western blot (example shown in inset). Blank beads served as a negative control. Equal β3 peptide loading was verified by probing blots with avidin-HRP (not shown).
For orientation: Alpha assays give light when donor and acceptor beads are brought close together.

Series [2] has as its target T2, integrin β3 cytoplasmic domain (bβ3(fl)) : GST-Syk(6-370) (Homo sapiens, UniProt P43405).
T2 construct: the tandem SH2 domains of Syk (residues 6-370); made in house; host or cells: E. coli BL21(DE3)
The series is described as follows: ELISA-based orthogonal assay, bβ3(fl) and GST-Syk(6-370). Type of series: binding. As to the method: For ELISA-based assays, 96-well plates (Costar cat# 9018) were coated overnight at 4°C with neutravidin (Thermo Scientific, cat#31050) in 10 mM Tris pH 9 and 100 mM NaCl. After overnight incubation, non-specific binding sites were blocked with bovine serum albumin (BSA) (2% w/v) for at least 1 h at room temperature. Plates were washed in 25 mM HEPES pH 7.5, 100 mM NaCl, 0.1% BSA, and 0.01% TritonX-100 (assay buffer), and indicated biotinylated β3 peptide was incubated for at least 2 h at room temperature (0.5–3 ug/ml in di-H2O). After washing in the assay buffer, GST-fusion proteins were added (50 ul, indicated concentrations) and incubated at room temperature for 1 h in assay buffer. For compound inhibition studies, compounds were added to GST-fusion proteins (at indicated concentrations) before they were added to plates. Plates were washed 3× with assay buffer (200 ul) to remove unbound GST-fusion protein. Horseradish peroxidase (HRP)-conjugated anti-GST antibody [Polyclonal anti-GST(Z-5)-HRP, Santa Cruz Biotechnology, cat #sc-459 0.2 ug/ml] was incubated in washed plates in 50 ul assay buffer for 45 min at room temperature. After washing, the signal was generated with 1-step Ultra TMB-ELISA (Thermo Scientific, cat#34028), stopped with 2 N H2SO4, and read on a plate reader (SPARK 10M/Tecan) at 450 nm.
Figure 3 Dose-response curves in primary and orthogonal screens. (A) AlphaScreen dose-response curves. […] Data are expressed as mean fluorescence (Fl520) ± range from duplicates, and one representative experiment of “n” performed is shown. (B) Orthogonal ELISA-based dose-response assays. […] Data are expressed as mean abs450 ± SEM from triplicate determinations, and one of three representative experiments is shown. (C) Ceftazidime inhibition of β3 peptide binding to Syk from THP-1 whole cell lysate. THP-1 cell lysate (100 ug) was treated with or without ceftazidime (Ctaz) before incubation with β3-coated avidin-agarose beads, and bound Syk was measured by western blot (example shown in inset). Blank beads served as a negative control. […]
On the technique in general: In an ELISA, binding on a coated surface is turned into a signal by an enzyme label.

The next series deals with T3, GST-free Syk(6-370) (Homo sapiens, UniProt P43405).
T3 construct: Syk 6-370 (GST tag removed by thrombin cleavage) was used; GST (N, cleaved yes); made in house; host or cells: E. coli BL21(DE3)
Briefly: Thermal denaturation assay (SYPRO orange). Type of series: binding. The settings on record: Syk(6-370) 2 µM, dose-dependent. Here is the method:
In this assay, Syk 6-370 (GST tag removed by thrombin cleavage) was used. Thrombin (GE Healthcare cat#270846, reconstituted in PBS to 1 unit/ul) was applied to the GST-Syk 6-370 protein bound to the Glutathione Sepharose beads. The GST-tag was cleaved with 20 unit/1 ml of protein-GST beads in PBS overnight at room temperature. After chromatography and additional cleaning on GST-beads, the purified protein was verified by SDS-PAGE. For thermal denaturation experiments, GST-free Syk(6-370) was used at a final concentration of 2 µM and SYPRO orange (Thermo Scientific, cat# S6650) at a 0.08% (v/v) dilution (from a 5000x stock). Compounds were used at indicated concentrations. Numerous reaction buffers were initially screened, and a final buffer containing 25 mM HEPES (pH 7.5) with 100 mM NaCl was used. Assays were performed in 20 µl volumes, in triplicate, in 384-well plates (Applied Biosystems MicroAmp 384-well clear optical reaction plate, catalogue #4483285). Plates were sealed with Applied Biosystems Optical Adhesive Cover (cat#4360954) and centrifuged for 2 min at 800 × g at room temperature. Thermal denaturation was measured on a Quant Studio 6 Flex Real-time PCR system (Applied Biosystems). […]

Series [3] in a line: Solubility under assay conditions. Type of series: physicochemical.
[4] abbreviates: Figure 3A: biotinylated-b3(sh) peptide 30 nM, GST-Syk(6-370) 0.3 nM, read-out: IC50, AlphaScreen dose-response.

Read-outs that look alike come from different tables or passages of the source.

As for `NC(=O)c1cc[n+](CC2=C(C(=O)O)N3C(=O)[C@@H](NC(=O)[C@@H](c4ccccc4)S(=O)(=O)[O-])[C@H]3SC2)cc1` [cefsulodin], the IC50 is 4.9 ± 4.2 µM in series [1] (setting [4]); 1.02 to 4.9 µM in series [1] (abstract summary for both compounds, read-out: IC50 range, inhibition of integrin β-subunit cytoplasmic domain binding to the tandem SH2 domains of Syk); 4.2 µM in series [1] (as restated in the Discussion, read-out: IC50 in AlphaScreen assays); 4.89 ± 4.2 µM in series [1] (biotinylated-b3(sh) peptide 30 nM, GST-Syk(6-370) 0.3 nM, read-out: value printed in Figure 3A, AlphaScreen dose-response (no measure name)). The “fold difference in inhibition, primary screen over false-positive counter screen (hit criterion)” value (shortened to “fold difference in inhibition”) in series [1] is recorded as “greater than 3 fold”. The “inhibition of fluorescent signal in the primary screen, re-sourced compounds (hit criterion)” value (“inhibition of fluorescent signal” for short) in series [1] is listed as “greater than 50%”. Besides, the “inhibitory activity in ELISA-based orthogonal assay” value in series [2] is “remained active”. On GST-free Syk(6-370), the “effect on melting temperature (Tm) of Syk(6-370)” value is recorded as “decreased”.
Consider `C=C1c2cccc(O)c2C(=O)C2=C(O)[C@]3(O)C(=O)C(C(N)=O)=C(O)[C@@H](N(C)C)[C@@H]3[C@@H](O)[C@H]12` [methacycline], for which the IC50 in series [1] (setting [4]) came to 22.4 ± 4.1 µM. In series [1], the “fold difference in inhibition” value is given as “greater than 3 fold” and the “inhibition of fluorescent signal” value is reported as “greater than 50%”. In addition, in series [3] (ELISA assay buffer, highest doses tested), the “solubility under ELISA assay conditions” value is on record as “not soluble at the highest doses tested”.
As for `CC[C@@]1(O)C(=O)OCc2c1cc1n(c2=O)Cc2cc3c(CN(C)C)c(O)ccc3nc2-1` [topotecan], in series [3] (re-sourced hit retest, 30 uM), the “solubility for retest in primary and false-positive screens” value is given as “lack of solubility”.
For neomycin sulfate, in series [1] (setting [4]), the IC50 was 0.038 ± 0.019 µM. In addition, in series [1], the “fold difference in inhibition” value is “greater than 3 fold” and the “inhibition of fluorescent signal” value is reported as “greater than 50%”. In addition, in series [2], the “inhibitory activity in ELISA-based orthogonal assay” value was “did not demonstrate inhibitory activity”.

The record behind these values is PMC7819857, “Identification of Inhibitors of Integrin Cytoplasmic Domain Interactions With Syk” (Frontiers in Immunology, 2021).
